This note sets out measurements from patent US12227498B2, “Heterocyclic amine derivative and pharmaceutical composition comprising same” (Daewoong Pharmaceutical Co., Ltd., priority 2018, dated 2025).

Assay [1] deals with T1, ITK (Homo sapiens, UniProt Q08881).
T1 construct: purchased Promega Corporation
T1 sequence (Q08881 1-620): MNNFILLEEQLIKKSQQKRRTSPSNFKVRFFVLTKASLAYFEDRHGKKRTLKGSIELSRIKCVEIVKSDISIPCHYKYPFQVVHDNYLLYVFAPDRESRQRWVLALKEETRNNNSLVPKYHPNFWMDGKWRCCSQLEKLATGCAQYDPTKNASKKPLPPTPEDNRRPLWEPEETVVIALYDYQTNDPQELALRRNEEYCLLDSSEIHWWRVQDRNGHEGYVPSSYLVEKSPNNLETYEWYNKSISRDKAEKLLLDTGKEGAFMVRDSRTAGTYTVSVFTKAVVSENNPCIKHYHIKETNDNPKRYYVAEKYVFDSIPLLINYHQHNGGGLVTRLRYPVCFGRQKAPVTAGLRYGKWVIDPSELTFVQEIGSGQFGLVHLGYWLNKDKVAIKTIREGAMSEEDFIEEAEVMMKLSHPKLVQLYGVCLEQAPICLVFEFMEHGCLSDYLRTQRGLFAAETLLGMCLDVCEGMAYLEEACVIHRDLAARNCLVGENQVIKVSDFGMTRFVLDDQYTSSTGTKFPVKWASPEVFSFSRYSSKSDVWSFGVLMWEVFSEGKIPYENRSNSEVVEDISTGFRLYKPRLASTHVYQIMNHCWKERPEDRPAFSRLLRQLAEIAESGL
Put plainly: Inhibitory activity against ITK, ADP-Glo + ITK Kinase enzyme system kit (Promega). The assay is classed as biochemical. Particulars: ITK enzyme 0.4 ng/μl; 15 min preincubation at room temperature; 1 hour at 30° C.; luminescence; duplicate. The procedure:
(§1) Inhibitory activities against BTK and ITK were measured for the compounds prepared in the above Examples as follows.
The inhibitory activity against ITK was evaluated using ‘ADP-Glo™+ITK Kinase enzyme system’ kit (Promega Corporation). […] To the plate on which reactions were completed, 5 μl of substrate and 5 μl of ATP prepared so as to have a final concentration of […] were added and then allowed to react at 30° C. for 1 hour. All wells of the plate were treated with 25 μl of ADP-Glo™ reagent and then allowed to react at 30° C. for 40 minutes. After that, all wells were treated with 50 μl of kinase detection buffer, and then allowed to react at 30° C. for 30 minutes under light shielding conditions. For the plate on which all reactions were completed, luminescence was measured and the results were calculated. Evaluation was carried out in duplicate, and negative control and positive control were calculated depending on whether or not the enzyme was added without treatment of the compound. The IC50 was calculated based on the calculated values.

Assay [2] has as its target T2, BTK (Homo sapiens, UniProt Q06187).
T2 construct: purchased Promega Corporation
The experiment in a line: Inhibitory activity against BTK, ADP-Glo + BTK Kinase enzyme system kit (Promega). The assay is classed as biochemical. Particulars: BTK enzyme 1 ng/μl; ATP 10 µM; 15 min preincubation at room temperature; 1 hour at 30° C.; luminescence; duplicate. The method, then:
as §1
The inhibitory activities against BTK were evaluated using ‘ADP-Glo™+BTK Kinase enzyme system’ kit (Promega Corporation). […] 5 μl of substrate and 5 μl of ATP prepared so as to have a final concentration of 10 µM were added to the plate on which reactions were completed, and then allowed to react at 30° C. for 1 hour. All wells of the plate were treated with 25 μl of ADP-Glo™ reagent and allowed to react at 30° C. for 40 minutes. After that, all wells were treated with 50 μl of kinase detection buffer, and then reacted at 30° C. for 30 minutes under light shielding conditions. For the plate on which all reactions were completed, luminescence was measured and the results were calculated. Evaluation was carried out in duplicate, and negative control and positive control were calculated depending on whether or not the enzyme was added without treatment of the compound. The IC50 was calculated based on the calculated values.
On the technique in general: ADP-Glo turns the ADP formed in a reaction into a luminescent signal.

T2 sequence (Q06187 whole entry): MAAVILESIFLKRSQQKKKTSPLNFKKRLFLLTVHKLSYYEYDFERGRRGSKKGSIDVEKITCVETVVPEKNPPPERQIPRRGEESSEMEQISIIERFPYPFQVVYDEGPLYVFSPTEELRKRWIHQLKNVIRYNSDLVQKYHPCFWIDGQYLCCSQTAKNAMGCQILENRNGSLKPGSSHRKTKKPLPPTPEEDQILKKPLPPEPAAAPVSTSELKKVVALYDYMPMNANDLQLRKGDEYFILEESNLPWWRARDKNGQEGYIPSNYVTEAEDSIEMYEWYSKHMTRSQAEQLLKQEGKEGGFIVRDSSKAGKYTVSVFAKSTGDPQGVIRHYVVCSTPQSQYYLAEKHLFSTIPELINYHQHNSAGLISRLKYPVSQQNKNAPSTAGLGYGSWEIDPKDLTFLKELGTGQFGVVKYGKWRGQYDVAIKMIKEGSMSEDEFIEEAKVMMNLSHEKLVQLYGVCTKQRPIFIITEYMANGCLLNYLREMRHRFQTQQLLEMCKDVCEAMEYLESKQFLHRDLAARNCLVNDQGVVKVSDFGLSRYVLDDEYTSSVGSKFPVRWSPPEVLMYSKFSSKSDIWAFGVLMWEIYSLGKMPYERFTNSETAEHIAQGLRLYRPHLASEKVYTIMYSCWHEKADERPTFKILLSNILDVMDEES

In the case of `C=CC(=O)N1CCCC(Nc2cc(CN3CCOCC3)cc(Nc3ncc(C)s3)n2)C1` (stereo not shown) [Example 1, 1-(3-((6-((5-methylthiazol-2-yl)amino)-4-(morpholinomethyl)pyridin-2-yl)amino)piperidin-1-yl) prop-2-en-1-one], the concentration for half-maximal inhibition (IC50) (as a rule, the midpoint of a concentration-inhibition curve) in assay [1] is 4.1 nM; in assay [2] it was 4.7 nM.
The matching figures for `C=CC(=O)N1CCC(Nc2cc(CN3CCOCC3)cc(Nc3ncc(C)s3)n2)C1` (stereo not shown) [Example 2, 1-(3-((6-((5-methylthiazol-2-yl)amino)-4-(morpholinomethyl)pyridin-2-yl)amino)pyrrolidin-1-yl) prop-2-en-1-one]: 2.6 nM and 3.1 nM.
In the same order, the values of `C=CC(=O)N1CCC(Nc2cc(CN3CCOCC3)cc(Nc3ncc(C)s3)n2)CC1` [Example 3, 1-(4-((6-((5-methylthiazol-2-yl)amino)-4-(morpholinomethyl)pyridin-2-yl)amino)piperidin-1-yl) prop-2-en-1-one] are 9.1 nM and 10.3 nM.
The matching figures for `C=CC(=O)N1CCC[C@@H](Nc2cc(CN3CCOCC3)cc(Nc3ncc(C)s3)n2)C1` [Example 4, (R)-1-(3-((6-((5-methylthiazol-2-yl)amino)-4-(morpholinomethyl)pyridin-2-yl)amino)piperidin-1-yl) prop-2-en-1-one]: 1.6 nM and 0.4 nM.
For the molecule `C=CC(=O)N1CCC[C@H](Nc2cc(CN3CCOCC3)cc(Nc3ncc(C)s3)n2)C1` [Example 5, (S)-1-(3-((6-((5-methylthiazol-2-yl)amino)-4-(morpholinomethyl)pyridin-2-yl)amino)piperidin-1-yl) prop-2-en-1-one], the results for the 50% inhibitory concentration (IC50) in assay [1] and in assay [2] were above 200 nM and 152 nM, respectively.
As for `C=CC(=O)N1CC[C@@H](Nc2cc(CN3CCOCC3)cc(Nc3ncc(C)s3)n2)C1` [Example 6, (R)-1-(3-((6-((5-methylthiazol-2-yl)amino)-4-(morpholinomethyl)pyridin-2-yl)amino)pyrrolidin-1-yl) prop-2-en-1-one], the values for the half-inhibitory concentration (IC50) in assay [1] and in assay [2] were 36 nM and 27.7 nM, respectively.
The matching figures for `C=CC(=O)N1CC[C@H](Nc2cc(CN3CCOCC3)cc(Nc3ncc(C)s3)n2)C1` [Example 7, (S)-1-(3-((6-((5-methylthiazol-2-yl)amino)-4-(morpholinomethyl)pyridin-2-yl)amino)pyrrolidin-1-yl) prop-2-en-1-one]: 3.5 nM and 3.6 nM.
In the same order, the values of `C=CC(=O)N1CCC(Nc2cc(CN3CCOCC3)nc(Nc3ncc(C)s3)n2)C1` (stereo not shown) [Example 8, 1-(3-((2-((5-methylthiazol-2-yl)amino)-6-(morpholinomethyl)pyrimidin-4-yl)amino)pyrrolidin-1-yl) prop-2-en-1-one] are 71.7 nM and 72.5 nM.
The matching figures for `C/C=C/C(=O)N1CCC(Nc2cc(CN3CCOCC3)nc(Nc3ncc(C)s3)n2)C1` (stereo not shown) [Example 9, (E)-1-(3-((2-((5-methylthiazol-2-yl)amino)-6-(morpholinomethyl)pyrimidin-4-yl)amino)pyrrolidin-1-yl) but-2-en-1-one]: above 1000 nM and above 1000 nM.
Take `C=CC(=O)N1CCC(Oc2cc(CN3CCOCC3)cc(Nc3ncc(C)s3)n2)C1` (stereo not shown) [Example 10, 1-(3-((6-((5-methylthiazol-2-yl)amino)-4-(morpholinomethyl)pyridin-2-yl)oxy)pyrrolidin-1-yl) prop-2-en-1-one]: the IC50 is above 40 nM in assay [1] and 2.4 nM in assay [2].
In the case of `C=CC(=O)N1CCC(Oc2cc(CN3CCOCC3)cc(Nc3ncc(C)s3)n2)CC1` [Example 11, 1-(4-((6-((5-methylthiazol-2-yl)amino)-4-(morpholinomethyl)pyridin-2-yl)oxy)piperidin-1-yl) prop-2-en-1-one], the figures for the IC50 in assay [1] and in assay [2] were 7.8 nM and 8.5 nM, respectively.
With `C=CC(=O)N1CCCC(Oc2cc(CN3CCOCC3)cc(Nc3ncc(C)s3)n2)C1` (stereo not shown) [Example 12, 1-(3-((6-((5-methylthiazol-2-yl)amino)-4-(morpholinomethyl)pyridin-2-yl)oxy)piperidin-1-yl) prop-2-en-1-one], the IC50 in assay [1] and in assay [2] was 2 nM each time.
Regarding `CC#CC(=O)N1CCC[C@@H](Nc2cc(CN3CCOCC3)cc(Nc3ncc(C)s3)n2)C1` [Example 13, (R)-1-(3-((6-((5-methylthiazol-2-yl)amino)-4-(morpholinomethyl)pyridin-2-yl)amino)piperidin-1-yl) but-2-yn-1-one], the IC50 in assay [1] and in assay [2] was above 200 nM throughout.
As to `CC#CC(=O)N1CCC(Nc2cc(CN3CCOCC3)cc(Nc3ncc(C)s3)n2)C1` (stereo not shown) [Example 14, 1-(3-((6-((5-methylthiazol-2-yl)amino)-4-(morpholinomethyl)pyridin-2-yl)amino)pyrrolidin-1-yl) but-2-yn-1-one], the figures for the IC50 in assay [1] and in assay [2] were 49.1 nM and 3.3 nM, respectively.
The matching figures for `C=CC(=O)N1CCC[C@H](Oc2cc(CN3CCOCC3)cc(Nc3ncc(C)s3)n2)C1` [Example 15, (S)-1-(3-((6-((5-methylthiazol-2-yl)amino)-4-(morpholinomethyl)pyridin-2-yl)oxy)piperidin-1-yl) prop-2-en-1-one]: 47.3 nM and 2.3 nM.
Regarding `C=CC(=O)N1CCC[C@@H](Oc2cc(CN3CCOCC3)cc(Nc3ncc(C)s3)n2)C1` [Example 16, (R)-1-(3-((6-((5-methylthiazol-2-yl)amino)-4-(morpholinomethyl)pyridin-2-yl)oxy)piperidin-1-yl) prop-2-en-1-one], the IC50 is above 1000 nM in assay [1] and 1.1 nM in assay [2].
The matching figures for `C=CC(=O)N1CCCC(Nc2nc(CN3CCOCC3)cc(Nc3ncc(C)s3)n2)C1` (stereo not shown) [Example 17, 1-(3-((4-((5-methylthiazol-2-yl)amino)-6-(morpholinomethyl)pyrimidin-2-yl)amino)piperidin-1-yl) prop-2-en-1-one]: 1.9 nM and 1.5 nM.
The matching figures for `CC#CC(=O)N1CCC[C@H](Nc2cc(CN3CCOCC3)cc(Nc3ncc(C)s3)n2)C1` [Example 18, (S)-1-(3-((6-((5-methylthiazol-2-yl)amino)-4-(morpholinomethyl)pyridin-2-yl)amino)piperidin-1-yl) but-2-yn-1-one]: 50.5 nM and 5.2 nM.
As to `CC#CC(=O)N1CCC(Nc2cc(CN3CCOCC3)cc(Nc3ncc(C)s3)n2)CC1` [Example 19, 1-(4-((6-((5-methylthiazol-2-yl)amino)-4-(morpholinomethyl)pyridin-2-yl)amino)piperidin-1-yl) but-2-yn-1-one], in assay [2], the concentration for half-maximal inhibition (IC50) amounted to 875 nM.
As for `C=CC(=O)N1CCC[C@H](Nc2cc(CN3CCN(C(C)=O)CC3)cc(Nc3ncc(C)s3)n2)C1` [Example 20], the IC50 in assay [1] and in assay [2] was 1.1 nM in each case.
As to `C=CC(=O)N1CCC[C@H](Nc2nc(CN3CCOCC3)cc(Nc3ncc(C)s3)n2)C1` [Example 21, (S)-1-(3-((4-((5-methylthiazol-2-yl)amino)-6-(morpholinomethyl)pyrimidin-2-yl)amino)piperidin-1-yl) prop-2-en-1-one], the IC50 is 1.9 nM in assay [1] and 1.3 nM in assay [2].
The matching figures for `C=CC(=O)N1CCC[C@H](Nc2cc(CN3CCN(CCOC)CC3)cc(Nc3ncc(C)s3)n2)C1` [Example 22]: 1 nM and 1.2 nM.
On to `CC#CC(=O)N1CCC[C@H](Nc2nc(CN3CCOCC3)cc(Nc3ncc(C)s3)n2)C1` [Example 23, (S)-1-(3-((4-((5-methylthiazol-2-yl)amino)-6-(morpholinomethyl)pyrimidin-2-yl)amino)piperidin-1-yl) but-2-yn-1-one], for which the half-inhibitory concentration (IC50) in assay [2] was 36.6 nM.
With `C=CC(=O)N1CC[C@H](Nc2nc(CN3CCOCC3)cc(Nc3ncc(C)s3)n2)C1` [Example 24, (S)-1-(3-((4-((5-methylthiazol-2-yl)amino)-6-(morpholinomethyl)pyrimidin-2-yl)amino)pyrrolidin-1-yl) prop-2-en-1-one], the IC50 in assay [1] was determined as 2.3 nM; in assay [2] it was 2.2 nM.
